# How the values were obtained:
# Fusarium moniliforme [1] = assay: Inhibition of phytopathogenic fungi growth, laboratory test on potato-dextrose agar; type: cell-based; conditions: active principle 0.01 % by mass in potato-dextrose agar
# Method: (§1) A fungicidal composition based on this compound was prepared in the form of a 0.01% solution thereof in distilled water. A fungicidal action of the composition, according to the invention, was tested for inhibition of vegetative fungi growth such as Fusarium moniliforme, Ventura inaequalis, Rhyzoctonia ciolaceae, Botrytis cinereae, Verticillium albo-atrum, Diplodia zeae, Fusarium oxysporum, Rhoma betae, Rhyzoctonia aderholdii, Aspergillus niger, Alternaria sobani, Botrytis allii, Aspergillus fumigatis, Fusarium culmorum, Penicillium cyclopium affecting potato, sugar beet, cotton seeds either in laboratory or field conditions. For testing it to the Petri dishes containing potato-dextrose agar the composition of the invention was.added at the concentration of an active principle of 0.01 % by mass. The Petri dishes containing the same agar culture were inoculated with a mycelium of phytopathogenic fungi. For control dishes the phytopathogenic fungi were inoculated on agar without using the composition of the invention. A fungicidal effect of the composition, according to the invention was tested in comparison with the known fungicidal compositions based on 2,3-dichloro-1,4-naphthoquinone, zinc N,N'-ethylene-bis-dithiocarbamate and tetramethylthiuram disulphide.
# Aspergillus fumigatis [2] = assay: as above; type: cell-based; conditions: active principle 0.01 % by mass in potato-dextrose agar
# Method: as §1
# Botrytis cinereae [3] = assay: as above; type: cell-based; conditions: active principle 0.01 % by mass in potato-dextrose agar
# Method: as §1
# Rhoma betae [4] = assay: as above; type: cell-based; conditions: active principle 0.01 % by mass in potato-dextrose agar
# Method: as §1
# Diplodia zeae [5] = assay: as above; type: cell-based; conditions: active principle 0.01 % by mass in potato-dextrose agar
# Method: as §1
# Rhyzoctonia violaceae [6] = assay: as above; type: cell-based; conditions: active principle 0.01 % by mass in potato-dextrose agar
# Method: as §1
# Verticillium albo-atrum [7] = assay: as above; type: cell-based; conditions: active principle 0.01 % by mass in potato-dextrose agar
# Method: as §1
# Penicillium cyclopium [8] = assay: as above; type: cell-based; conditions: active principle 0.01 % by mass in potato-dextrose agar
# Method: as §1
# Rhyzoctonia aderholdii [9] = assay: as above; type: cell-based; conditions: active principle 0.01 % by mass in potato-dextrose agar
# Method: as §1
# Aspergillus niger [10] = assay: as above; type: cell-based; conditions: active principle 0.01 % by mass in potato-dextrose agar
# Method: as §1
# Fusarium oxysporum [11] = assay: as above; type: cell-based; conditions: active principle 0.01 % by mass in potato-dextrose agar
# Method: as §1
# Botrytis allii [12] = assay: as above; type: cell-based; conditions: active principle 0.01 % by mass in potato-dextrose agar
# Method: as §1
# Fusarium culmorum [13] = assay: as above; type: cell-based; conditions: active principle 0.01 % by mass in potato-dextrose agar
# Method: as §1
# Venturia inaequalis [14] = assay: as above; type: cell-based; conditions: active principle 0.01 % by mass in potato-dextrose agar
# Method: as §1
# Alternaria sobani [15] = assay: as above; type: cell-based; conditions: active principle 0.01 % by mass in potato-dextrose agar
# Method: as §1
# Solubility (qualitative) = conditions: water, alcohols, acetone
# Fusarium moniliforme [16] = assay: Inhibition of phytopathogenic fungi, field test on affected potato plants; type: in vivo; conditions: 5 m^2 plots of affected potato plants sprayed
# Source text: (§2) For field tests the plots of 5 m^2 in size with potato plants affected by Fusarium moniliforme, Venturia inaequalis, Rhyzoctonia violaceae, Botrytis cinereae, Verticillium albo-atrum, Diplodia zeae, Fusarium oxysporum, Rhoma betae, Rhyzoctonia aderholdii, Aspergillus niger, Alternaria sobani, Botrytis allii, Aspergillus fumigatis, Fusarium culmorum, Penicillium cyclopium were sprayed with the fungicide of the invention. To compare, the similar plots of the affected potato plants were aprayed with the known compositions indicated above.
# Aspergillus fumigatis [17] = assay: as above; type: in vivo; conditions: 5 m^2 plots of affected potato plants sprayed
# Source text: as §2
# Botrytis cinereae [18] = assay: as above; type: in vivo; conditions: 5 m^2 plots of affected potato plants sprayed
# Source text: as §2
# Rhoma betae [19] = assay: as above; type: in vivo; conditions: 5 m^2 plots of affected potato plants sprayed
# Source text: as §2
# Diplodia zeae [20] = assay: as above; type: in vivo; conditions: 5 m^2 plots of affected potato plants sprayed
# Source text: as §2
# Rhyzoctonia violaceae [21] = assay: as above; type: in vivo; conditions: 5 m^2 plots of affected potato plants sprayed
# Source text: as §2
# Verticillium albo-atrum [22] = assay: as above; type: in vivo; conditions: 5 m^2 plots of affected potato plants sprayed
# Source text: as §2
# Penicillium cyclopium [23] = assay: as above; type: in vivo; conditions: 5 m^2 plots of affected potato plants sprayed
# Source text: as §2
# Rhyzoctonia aderholdii [24] = assay: as above; type: in vivo; conditions: 5 m^2 plots of affected potato plants sprayed
# Source text: as §2
# Aspergillus niger [25] = assay: as above; type: in vivo; conditions: 5 m^2 plots of affected potato plants sprayed
# Source text: as §2
# Fusarium oxysporum [26] = assay: as above; type: in vivo; conditions: 5 m^2 plots of affected potato plants sprayed
# Source text: as §2
# Botrytis allii [27] = assay: as above; type: in vivo; conditions: 5 m^2 plots of affected potato plants sprayed
# Source text: as §2
# Fusarium culmorum [28] = assay: as above; type: in vivo; conditions: 5 m^2 plots of affected potato plants sprayed
# Source text: as §2
# Venturia inaequalis [29] = assay: as above; type: in vivo; conditions: 5 m^2 plots of affected potato plants sprayed
# Source text: as §2
# Alternaria sobani [30] = assay: as above; type: in vivo; conditions: 5 m^2 plots of affected potato plants sprayed
# Source text: as §2
smiles,measurement,setting,value
"O=C(NP(=O)(Nc1ccc(Cl)cc1[N+](=O)[O-])Nc1ccc(Cl)cc1[N+](=O)[O-])c1ccc(Cl)cc1 [Example 14, para-chlorobenzoylamidophosphoric acid di-para-chloro--ortho-nitroanilide]","Inhibition of growth of phytopathogenic fungi colonies, % Fusatium monili-forme test laboratory",Fusarium moniliforme [1],56%
same,"Inhibition of growth of phytopathogenic fungi colonies, % Aspergillus fumigatis Tests laboratory",Aspergillus fumigatis [2],100%
same,"Inhibition of growth of phytopathogenic fungi colonies, % Botrytis cinereae test laboratory",Botrytis cinereae [3],0%
same,"Inhibition of growth of phytopathogenic fungi colonies, % Rhoma betae test laboratory",Rhoma betae [4],68%
same,"Inhibition of growth of phytopathogenic fungi colonies, % Diplodia zeae test laboratory",Diplodia zeae [5],100%
same,"Inhibition of growth of phytopathogenic fungi colonies, % Rhyzoctonia violaceae test laboratory",Rhyzoctonia violaceae [6],35%
same,"Inhibition of growth of phytopathogenic fungi colonies, % Verticillium albo--atrum test laboratory",Verticillium albo-atrum [7],40%
same,"Inhibition of growth of phytopathogenic fungi colonies, % Penicillium cyclopium Tests laboratory",Penicillium cyclopium [8],79%
same,"Inhibition of growth of phytopathogenic fungi colonies, % Rhyzoctonia aderholdii test laboratory",Rhyzoctonia aderholdii [9],100%
same,"Inhibition of growth of phytopathogenic fungi colonies, % Aspergillus niger test laboratory",Aspergillus niger [10],6%
same,"Inhibition of growth of phytopathogenic fungi colonies, % Fusarium oxysporum test laboratory",Fusarium oxysporum [11],50%
same,"Inhibition of growth of phytopathogenic fungi colonies, % Botrytis allii test laboratory",Botrytis allii [12],100%
same,"Inhibition of growth of phytopathogenic fungi colonies, % Fusarium culmorum Tests laboratory",Fusarium culmorum [13],100%
same,"Inhibition of growth of phytopathogenic fungi colonies, % Venturia inaequalis test laboratory",Venturia inaequalis [14],50%
same,"Inhibition of growth of phytopathogenic fungi colonies, % Alternaria sobani test laboratory",Alternaria sobani [15],100%
same,solubility,Solubility (qualitative),"soluble in water, alcohols, acetone"
same,"Inhibition of growth of phytopathogenic fungi colonies, % Fusatium monili-forme test field",Fusarium moniliforme [16],55%
same,"Inhibition of growth of phytopathogenic fungi colonies, % Aspergillus fumigatis Tests field",Aspergillus fumigatis [17],93%
same,"Inhibition of growth of phytopathogenic fungi colonies, % Botrytis cinereae test field",Botrytis cinereae [18],0%
same,"Inhibition of growth of phytopathogenic fungi colonies, % Rhoma betae test field",Rhoma betae [19],67%
same,"Inhibition of growth of phytopathogenic fungi colonies, % Diplodia zeae test field",Diplodia zeae [20],100%
same,"Inhibition of growth of phytopathogenic fungi colonies, % Rhyzoctonia violaceae test field",Rhyzoctonia violaceae [21],34%
same,"Inhibition of growth of phytopathogenic fungi colonies, % Verticillium albo--atrum test field",Verticillium albo-atrum [22],39%
same,"Inhibition of growth of phytopathogenic fungi colonies, % Penicillium cyclopium Tests field",Penicillium cyclopium [23],71%
same,"Inhibition of growth of phytopathogenic fungi colonies, % Rhyzoctonia aderholdii test field",Rhyzoctonia aderholdii [24],100%
same,"Inhibition of growth of phytopathogenic fungi colonies, % Aspergillus niger test field",Aspergillus niger [25],5%
same,"Inhibition of growth of phytopathogenic fungi colonies, % Fusarium oxysporum test field",Fusarium oxysporum [26],48%
same,"Inhibition of growth of phytopathogenic fungi colonies, % Botrytis allii test field",Botrytis allii [27],98%
same,"Inhibition of growth of phytopathogenic fungi colonies, % Fusarium culmorum Tests field",Fusarium culmorum [28],100%
same,"Inhibition of growth of phytopathogenic fungi colonies, % Venturia inaequalis test field",Venturia inaequalis [29],49%
same,"Inhibition of growth of phytopathogenic fungi colonies, % Alternaria sobani test field",Alternaria sobani [30],93%
"O=C(NP(=O)(Nc1ccc(Cl)cc1Cl)Nc1ccc(Cl)cc1Cl)c1ccc(Br)cc1 [Example 13, para-bromobenzoylamidophosphoric acid di-2,4-dichloroanil-ide]","Inhibition of growth of phytopathogenic fungi colonies, % Fusatium monili-forme test laboratory",Fusarium moniliforme [1],75%
same,"Inhibition of growth of phytopathogenic fungi colonies, % Aspergillus fumigatis Tests laboratory",Aspergillus fumigatis [2],53%
same,"Inhibition of growth of phytopathogenic fungi colonies, % Botrytis cinereae test laboratory",Botrytis cinereae [3],0%
same,"Inhibition of growth of phytopathogenic fungi colonies, % Rhoma betae test laboratory",Rhoma betae [4],64%
same,"Inhibition of growth of phytopathogenic fungi colonies, % Diplodia zeae test laboratory",Diplodia zeae [5],100%
same,"Inhibition of growth of phytopathogenic fungi colonies, % Rhyzoctonia violaceae test laboratory",Rhyzoctonia violaceae [6],46%
same,"Inhibition of growth of phytopathogenic fungi colonies, % Verticillium albo--atrum test laboratory",Verticillium albo-atrum [7],47%
same,"Inhibition of growth of phytopathogenic fungi colonies, % Penicillium cyclopium Tests laboratory",Penicillium cyclopium [8],100%
same,"Inhibition of growth of phytopathogenic fungi colonies, % Rhyzoctonia aderholdii test laboratory",Rhyzoctonia aderholdii [9],100%
same,"Inhibition of growth of phytopathogenic fungi colonies, % Aspergillus niger test laboratory",Aspergillus niger [10],35%
same,"Inhibition of growth of phytopathogenic fungi colonies, % Fusarium oxysporum test laboratory",Fusarium oxysporum [11],44%
same,"Inhibition of growth of phytopathogenic fungi colonies, % Botrytis allii test laboratory",Botrytis allii [12],100%
same,"Inhibition of growth of phytopathogenic fungi colonies, % Fusarium culmorum Tests laboratory",Fusarium culmorum [13],100%
same,"Inhibition of growth of phytopathogenic fungi colonies, % Venturia inaequalis test laboratory",Venturia inaequalis [14],45%
same,"Inhibition of growth of phytopathogenic fungi colonies, % Alternaria sobani test laboratory",Alternaria sobani [15],100%
same,"Inhibition of growth of phytopathogenic fungi colonies, % Fusatium monili-forme test field",Fusarium moniliforme [16],74%
same,"Inhibition of growth of phytopathogenic fungi colonies, % Aspergillus fumigatis Tests field",Aspergillus fumigatis [17],50%
same,"Inhibition of growth of phytopathogenic fungi colonies, % Botrytis cinereae test field",Botrytis cinereae [18],0%
same,"Inhibition of growth of phytopathogenic fungi colonies, % Rhoma betae test field",Rhoma betae [19],62%
same,"Inhibition of growth of phytopathogenic fungi colonies, % Diplodia zeae test field",Diplodia zeae [20],100%
same,"Inhibition of growth of phytopathogenic fungi colonies, % Rhyzoctonia violaceae test field",Rhyzoctonia violaceae [21],47%
same,"Inhibition of growth of phytopathogenic fungi colonies, % Verticillium albo--atrum test field",Verticillium albo-atrum [22],46%
same,"Inhibition of growth of phytopathogenic fungi colonies, % Penicillium cyclopium Tests field",Penicillium cyclopium [23],93%
same,"Inhibition of growth of phytopathogenic fungi colonies, % Rhyzoctonia aderholdii test field",Rhyzoctonia aderholdii [24],100%
same,"Inhibition of growth of phytopathogenic fungi colonies, % Aspergillus niger test field",Aspergillus niger [25],34%
same,"Inhibition of growth of phytopathogenic fungi colonies, % Fusarium oxysporum test field",Fusarium oxysporum [26],43%
same,"Inhibition of growth of phytopathogenic fungi colonies, % Botrytis allii test field",Botrytis allii [27],100%
same,"Inhibition of growth of phytopathogenic fungi colonies, % Fusarium culmorum Tests field",Fusarium culmorum [28],93%
same,"Inhibition of growth of phytopathogenic fungi colonies, % Venturia inaequalis test field",Venturia inaequalis [29],44%
same,"Inhibition of growth of phytopathogenic fungi colonies, % Alternaria sobani test field",Alternaria sobani [30],100%
